This note sets out measurements from patent US10738275B2, “Paenibacillus sp. strain, cultivation method and use of the same” (BRIGHT DAIRY & FOOD CO., LTD, priority 2016, dated 2020).

For one test, the system named is human intestinal flora. Description: in-vitro culture of adult fecal flora, PCR-DGGE of V3 area for total bacteria. The conditions noted are these: 0.4% added, faeces of healthy adults, anaerobic, 24 hours, 37° C. In kind it is cell-based. How it is done: (1) The faeces of 30 healthy adults (male or female, with the age range from 23 to 25, excluding those who have intestinal diseases or taking antibiotic drugs recently). They are dissolved in pH7.3-phosphate buffer (8 g/L-NaCl, 0.2 g/L-KCl, 1.15 g/L-NaHPO4, and 0.2 g/L-KH2PO4) and mixed uniformly. It is added into the culture system at a volume ratio of 1:10. Then, 0.4% of the purified extracellular polysaccharide (BD3526EPS for short) obtained in Embodiment 11 and 0.4% of the commercialized fructooligosaccharide (FOS for short) are added into the culture system respectively. Meanwhile, the blank control is arranged. They are anaerobically cultured for 24 hours under 37° C. The percentages refer to the mass-volume percentages of the culture system.
(2) Once the culture is completed, the phenol-chloroform method (ERCOLINI D, HILL P J, DODD C E. Bacterial community structure and location in Stilton cheese. Applied and environmental microbiology, 2003, 69(6): 3540-8.) is used to extract the DNA of the cultures and fecal flora. […]

A further test relates to B. Longum. The experiment in a line: in-vitro culture of infant fecal flora, PCR-intestinal microarray detection. The conditions noted are these: 0.4% (w/v) added, infant fecal flora in SIEM, anaerobic, 8 hours, 37° C.; blank control defined as 0. In kind it is cell-based. As for the experimental part: (§1) The standard culture solution of fecal flora is prepared in accordance with the method of Minekus et al (Models of the gastrointestinal tract to study microbial interactions Original Research Article Biology of Growing Animals, 2005, 2:142-154).
(§2) (2) Certain amount of standard ileum efflux culture medium (SIEM, with 0.047 g/L pectin, 0.047 g/L xyloglucan, 0.047 g/L arabinogalactan, 0.047 g/L amylose, 0.392 g/L starch, 24.0 g/L casein, 17.0 g/L Tween 80, 24.0 g/L bacto peptone, 0.4 g/L oxgall, and 0.2 g/L cysteine) is added into a 96-well microtitration plate. Then, the 0.1% of the standard culture solution of fecal flora is added. The percentage refers to the volume percentage of the standard ileum efflux culture medium. Then, 0.4% of the purified extracellular polysaccharide (“BD3526 extracellular polysaccharide” for short) obtained in Example 11 and 0.4% of the commercialized fructooligosaccharide (FOS for short) are added into different wells among the 96 wells respectively. The final volume of liquid in each well is 1.5 mL. Meanwhile, the blank control is arranged. They are anaerobically cultured for 8 hours under 37° C. The percentage refers to the mass-volume percentage of the final volume of the liquid in a well of the 96-well microtitration plate.
(§3) (3) Once the cultivation is completed, the fermentation broth is mixed with 250 μL of lysis buffer, […], of zirconium bead liquid (0.1 mm) and 200 μL of phenol solution. Then they are homogenized on the bead beater (BIO SPEC Inc. U.S.) for twice (2 minutes for each time). The DNA is extracted with DNA Kit (TIANGEN BIOTECH CO., LTD). Then, PCR-intestinal microarray detection method (SALAZAR N, GUEIMONDE M, HERNANDEZ-BARRANCO A M, et al. Exopolysaccharides produced by intestinal Bifidobacterium strains act as fermentable substrates for human intestinal bacteria. Applied and environmental microbiology, 2008, 74(15): 4737-45.) is used to analyze the number of floras in samples with respect to that of the blank control (standard solution of fecal flora cultured without adding polysaccharide).

A further test concerns B. infantis. The test is described as above. The conditions noted are these: 0.4% (w/v) added, infant fecal flora in SIEM, anaerobic, 8 hours, 37° C.; blank control defined as 0. In kind it is cell-based. How it is done: as §1, §2, §3
A further test concerns B. breve. The description is as above. In kind it is cell-based. The conditions noted are these: 0.4% (w/v) added, infant fecal flora in SIEM, anaerobic, 8 hours, 37° C.; blank control defined as 0. How it is done: as §1, §2, §3
The subject of another test is All bacteria. The test is described as above. In kind it is cell-based, infants' fecal flora. The conditions noted are these: 0.4% (w/v) added, infant fecal flora in SIEM, anaerobic, 8 hours, 37° C.; blank control defined as 0. As for the experimental part:
as §1
(2) Certain amount of standard ileum efflux culture medium (SIEM, with 0.047 g/L pectin, 0.047 g/L xyloglucan, 0.047 g/L arabinogalactan, 0.047 g/L amylose, 0.392 g/L starch, 24.0 g/L casein, 17.0 g/L Tween 80, 24.0 g/L bacto peptone, 0.4 g/L oxgall, and 0.2 g/L cysteine) is added into a 96-well microtitration plate. Then, the 0.1% of the standard culture solution of fecal flora is added. The percentage refers to the volume percentage of the standard ileum efflux culture medium. Then, 0.4% of the purified extracellular polysaccharide (“BD3526 extracellular polysaccharide” for short) obtained in Example 11 and 0.4% of the commercialized fructooligosaccharide (FOS for short) are added into different wells among the 96 wells respectively. The final volume of liquid in each well is 1.5 mL. Meanwhile, the blank control is arranged. They are anaerobically cultured for 8 hours under 37° C. The percentage refers to the mass-volume percentage of the final volume of the liquid in a well of the 96-well microtitration plate. […]

For another test, the system named is All bifidobacteria. The description is as above. In kind it is cell-based, bifidobacteria in infants' fecal flora. The conditions noted are these: 0.4% (w/v) added, 8 hours, 37° C.; for The increased log (ORF/mL) value of the flora in samples with respect to the blank control, All bifidobacteria: infant fecal flora in SIEM, anaerobic, blank control defined as 0. As for the experimental part:
as §1, §2, §3

“levan [BD3526 extracellular polysaccharide]”: in the test with human intestinal flora, the “brightness of PCR-DGGE stripes (FIG. 12), proliferation of bacteria in human intestinal flora, in words” value was “significantly brighter than those of the FOS group and the blank control group”. Also, the “The increased log (ORF/mL) value of the flora in samples with respect to the blank control, B. Longum” value with B. Longum is 0.36 log (ORF/mL). Also, the “The increased log (ORF/mL) value of the flora in samples with respect to the blank control, B. infantis” value with B. infantis was 0.017 log (ORF/mL). Further, the “The increased log (ORF/mL) value of the flora in samples with respect to the blank control, B. breve” value in the test on B. breve is recorded as 0.81 log (ORF/mL). In the test on All bacteria, the “The increased log (ORF/mL) value of the flora in samples with respect to the blank control, All bacteria” value is 0.448 log (ORF/mL). Also, in the test with All bifidobacteria, the “proliferation of the bifidobacteria in infants' fecal flora compared with the blank control group (FIG. 11), in words” value was “can also promote the proliferation of the bifidobacteria in infants' fecal flora” and the “The increased log (ORF/mL) value of the flora in samples with respect to the blank control, All bifidobacteria” value is listed as 0.74 log (ORF/mL).
Consider “fructooligosaccharide [FOS, reference compound]”, for which the “The increased log (ORF/mL) value of the flora in samples with respect to the blank control, B. Longum” value in the test on B. Longum is recorded as 0.37 log (ORF/mL). Also, the “The increased log (ORF/mL) value of the flora in samples with respect to the blank control, B. infantis” value in the test with B. infantis is reported as −0.121 log (ORF/mL). Moreover, in the test on B. breve, the “The increased log (ORF/mL) value of the flora in samples with respect to the blank control, B. breve” value is listed as 1.18 log (ORF/mL). Also, the “The increased log (ORF/mL) value of the flora in samples with respect to the blank control, All bacteria” value in the test on All bacteria was 0.12 log (ORF/mL). Further, in the test on All bifidobacteria, the “The increased log (ORF/mL) value of the flora in samples with respect to the blank control, All bifidobacteria” value is listed as 1.07 log (ORF/mL).
